Results on 1 compound are retold here after patent US6635620B1, “Hydroxyproline derivatives” (Japan Bioproducts Ind. Co., Ltd., priority 1998, dated 2003).

The test system of this test is BHK-21 cells. Put plainly: BHK-21 cell proliferation (cell growth) activity. The test is classed as cell-based, hamster. Particulars: 3 days culture, compared with medium control. The protocol: Cell growth activities of the samples were measured as BHK (baby hamster kidney) −21 cell proliferation activity, following the known method (Planta Med., 62,115-118,1996, and others). In detail, BHK-21 cells (1×10^4) were cultured in Eagle's minimum essential medium supplemented with 5% fetal bovine serum and 2 mM glutamine, for 3 days at 37° C. with different concentration (μg/ml) of test samples in 5% CO2/air at pH 7.2. The cells were treated with a mixture of trypsin and 0.02% EDTA solution to detach the cells from each well. The cells were harvested and the numbers of total viable cells were counted. The viability of the cells was determined by the method of dye-exclusion test using 0.4% trypan blue solution. The cell growth activity (%) was determined by comparing with the control cells (medium control).

The structures appear in SMILES notation.

Take `O=C1NC(CO)C(=O)N2C[C@H](O)CC12` (stereo partly shown) [Compound 2, 3′-Hydroxymethyl-4-hydroxypyrrolido [1,2-f] 2′, 5′-piperazinedione]: the cell growth activity entry is reported as “showed the cell growth activity”.
